These results are taken from the NIST ThermoML archive (doi:10.1016/j.jct.2017.09.006).

Numbers after ± are expanded uncertainties.

The conditions of series [1]: Crystal; DTA.
Series [2] in a line: Molar enthalpy of transition or fusion. Particulars: Crystal; DSC.

`COC(=O)c1cccc(C(=O)OC)c1` [dimethyl 1,3-benzenedicarboxylate]: the Normal melting temperature in series [1] came out at 67.2 ± 0.5 °C. The “Molar enthalpy of transition or fusion” value in series [2] amounted to 6.67 ± 0.167 kcal/mol.
On the same counts, the results for `Cc1ccc2ccc(C)cc2c1` [2,7-dimethylnaphthalene] are 95.0 ± 0.5 °C and 6.05 ± 0.263 kcal/mol.
